According to ChEMBL document CHEMBL1201862, “PubChem BioAssay data set” (2004):
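Test compounds were applied to cells in 96-well plates for 48 hours at 5 doses. GI50 marks 50% less growth.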 Active and inactive are the calls of the source. Cut-off read from the data, not from the text of the source: active = GI50 up to about 1.1 µM and inactive = higher.

Assays:
Assay in all cases: DTP human tumour cell line panel, 48 h
[1] = tested on: CAKI-1
[2] = tested on: MDA-N
[3] = tested on: UACC-62
[4] = tested on: SK-MEL-2
[5] = tested on: OVCAR-4
[6] = tested on: IGROV-1
[7] = tested on: SK-MEL-5
[8] = tested on: LOX IMVI
[9] = tested on: EKVX
[10] = tested on: U-251
[11] = tested on: HT-29
[12] = tested on: CCRF-CEM
[13] = tested on: SF-539
[14] = tested on: RXF 393
[15] = tested on: NCI-H226
[16] = tested on: OVCAR-5
[17] = tested on: 786-0
[18] = tested on: MOLT-4
[19] = tested on: SNB-75

Measured: GI50

CCOC(=O)C(=CN1CCNC1=S)C(=O)OCC
inactive: [1] > 100 µM | [2] > 100 µM | [3] > 100 µM | [4] > 100 µM | [5] > 100 µM | [6] > 100 µM | [7] > 100 µM | [8] > 100 µM | [9] > 100 µM | [10] > 100 µM | [11] > 100 µM | [12] > 100 µM | [13] > 100 µM | [14] > 100 µM | [15] > 100 µM | [16] > 100 µM | [17] > 100 µM | [18] > 100 µM

COCC1OC([P+](c2ccccc2)(c2ccccc2)c2ccccc2)CC(OC)C1OC (stereo not given)
inactive: [1] > 100 µM | [2] 37.2 µM | [3] 49.5 µM | [4] 24.1 µM | [5] 44.1 µM | [7] 18.2 µM | [9] 42.6 µM | [10] 35.6 µM | [14] 27.2 µM | [15] 33.9 µM | [16] 51.5 µM | [17] 53.2 µM | [18] 58.1 µM

CC1CC(N)=Nc2ccccc2N1Cc1ccccc1 (stereo not given)
inactive: [1] 12.2 µM | [2] 18 µM | [3] 14.2 µM | [4] 14.3 µM | [5] 16.5 µM | [6] 7.6 µM | [7] 14.7 µM | [19] 6.89 µM | [9] 22.1 µM | [10] 15.2 µM | [11] 14.4 µM | [12] 12.4 µM | [14] 12 µM | [15] 15.7 µM | [16] 31.8 µM | [17] 29.4 µM | [18] 3.49 µM

CC(=O)N1N(c2ccc([N+](=O)[O-])cc2)C(=O)C1(C)C
inactive: [2] 30.5 µM | [3] 18.5 µM | [4] 19.1 µM | [5] 19.2 µM | [6] 20.6 µM | [7] 16.9 µM | [19] 18.7 µM | [8] 11.6 µM | [9] 17.3 µM | [10] 21.7 µM | [11] 16.6 µM | [12] 7.08 µM | [13] 20.9 µM | [14] 18 µM | [15] 21.1 µM | [16] 23.3 µM | [17] 18.1 µM | [18] 15.5 µM

Cc1nc2c(Br)cc(Br)cc2c(=O)n1-c1ccccc1N
inactive: [1] 28.4 µM | [2] 50.9 µM | [3] 30.1 µM | [4] 19.2 µM | [5] > 100 µM | [6] 38.3 µM | [7] 18.3 µM | [19] 22.9 µM | [8] 27.5 µM | [9] 41 µM | [11] 23.9 µM | [12] 30.1 µM | [13] 35.2 µM | [15] 30.3 µM | [16] 28.8 µM | [17] 43.8 µM | [18] 21.9 µM

Cc1ccc2c(=O)c(-c3nnc(NC4CCCCC4)s3)c[nH]c2n1
inactive: [1] > 100 µM | [2] 81.7 µM | [3] > 100 µM | [4] > 100 µM | [5] > 100 µM | [6] > 100 µM | [7] 40.9 µM | [8] > 100 µM | [9] > 100 µM | [10] > 100 µM | [11] > 100 µM | [12] > 100 µM | [14] > 100 µM | [15] > 100 µM | [16] > 100 µM | [17] > 100 µM | [18] 61 µM
